Series [1] deals with Pseudomonas aeruginosa. Description: Antimicrobial activity against Pseudomonas aeruginosa expressing delta-mexB/mexXY/delta-ampDh2/ delta-ampD by CLSI broth microdilution method. It is filed as functional.
The subject of series [2] is Escherichia coli. Description: microbe, parasite or virus in culture.
Description: Antimicrobial activity against Escherichia coli expressing beta-lactamase TEM-10 by CLSI broth microdilution method
The nature of series [3]: Chemical stability in pH 7.4 potassium phosphate buffer assessed as half life for compound hydrolysis at 37 degC by UPLC and mass spectrometry. It is filed as physicochemical.
For series [4], the system named is Escherichia coli. As to the kind of experiment: Antimicrobial activity against Escherichia coli expressing beta-lactamase KPC-2 by CLSI broth microdilution method. It is filed as functional. On the technique in general: Dilution methods test growth across graded concentrations, often in twofold steps.
The subject of series [5] is Escherichia coli. As to the kind of experiment: microbe, parasite or virus in culture. The source holds these as a separate data set.
Description: Antimicrobial activity against Escherichia coli expressing beta-lactamase CTXM-15 by CLSI broth microdilution method
The test system of series [6] is Pseudomonas aeruginosa. Description: Antimicrobial activity against Pseudomonas aeruginosa expressing delta-mexB/delta-mexXY/delta-mexCD and delta-ampC mutant by CLSI broth microdilution method. It is filed as functional.
The subject of series [7] is Escherichia coli. As to the kind of experiment: microbe, parasite or virus in culture. This is another data set of the same source.
Description: Antimicrobial activity against Escherichia coli expressing beta-lactamase AmpC by CLSI broth microdilution method
The subject of series [8] is Escherichia coli. As to the kind of experiment: microbe, parasite or virus in culture. This is another data set of the same source.
Description: Antimicrobial activity against Escherichia coli expressing beta-lactamase CMY-2 by CLSI broth microdilution method
The test system of series [9] is Pseudomonas aeruginosa. Description: Antimicrobial activity against Pseudomonas aeruginosa ATCC 27853 by CLSI broth microdilution method. It is filed as functional.
Series [10] deals with Escherichia coli. Description: microbe, parasite or virus in culture. The source holds these as a separate data set.
Description: Antimicrobial activity against Escherichia coli expressing beta-lactamase SHV-12 by CLSI broth microdilution method
In series [11] the test system is Escherichia coli. As to the kind of experiment: Antimicrobial activity against Escherichia coli expressing beta-lactamase NDM-1 by CLSI broth microdilution method. It is filed as functional.
Series [12] has as its system Escherichia coli. As to the kind of experiment: microbe, parasite or virus in culture. The source holds these as a separate data set.
Description: Antimicrobial activity against wild type Escherichia coli by CLSI broth microdilution method
Series [13] relates to Pseudomonas aeruginosa. Description: Antimicrobial activity against Pseudomonas aeruginosa expressing nalB/delta-mexXY/delta-mexCDoprJ/delta-ampC by CLSI broth microdilution method. It is filed as functional.
The test system of series [14] is Escherichia coli. As to the kind of experiment: microbe, parasite or virus in culture. The source holds these as a separate data set.
Description: Antimicrobial activity against Escherichia coli expressing beta-lactamase PER-1 by CLSI broth microdilution method
Series [15] deals with Escherichia coli. As to the kind of experiment: microbe, parasite or virus in culture. The source holds these as a separate data set.
Description: Antimicrobial activity against Escherichia coli expressing beta-lactamase Oxa-18 by CLSI broth microdilution method
The subject of series [16] is Escherichia coli. As to the kind of experiment: microbe, parasite or virus in culture. The source holds these as a separate data set.
Description: Antimicrobial activity against Escherichia coli expressing beta-lactamase Oxa-225 by CLSI broth microdilution method
Series [17] deals with Escherichia coli. Description: microbe, parasite or virus in culture. The source holds these as a separate data set.
Description: Antimicrobial activity against Escherichia coli expressing beta-lactamase PER-2 by CLSI broth microdilution method
Series [18] deals with Escherichia coli. Description: microbe, parasite or virus in culture. This is another data set of the same source.
Description: Antimicrobial activity against Escherichia coli expressing beta-lactamase TEM-121 by CLSI broth microdilution method
Series [19] deals with Escherichia coli. As to the kind of experiment: Antimicrobial activity against Escherichia coli expressing beta-lactamase NDM-5 by CLSI broth microdilution method. It is filed as functional.
For series [20], the system named is Escherichia coli. As to the kind of experiment: microbe, parasite or virus in culture. This is another data set of the same source.
Description: Antimicrobial activity against Escherichia coli expressing beta-lactamase KPC-8 by CLSI broth microdilution method
Series [21] has as its system Escherichia coli. As to the kind of experiment: microbe, parasite or virus in culture. This is another data set of the same source.
Description: Antimicrobial activity against Escherichia coli expressing beta-lactamase GIM-1 by CLSI broth microdilution method
The subject of series [22] is Escherichia coli. As to the kind of experiment: microbe, parasite or virus in culture. The source holds these as a separate data set.
Description: Antimicrobial activity against Escherichia coli expressing beta-lactamase IMI-1 by CLSI broth microdilution method
The subject of series [23] is Escherichia coli. As to the kind of experiment: microbe, parasite or virus in culture. The source holds these as a separate data set.
Description: Antimicrobial activity against Escherichia coli expressing beta-lactamase MIR-1 by CLSI broth microdilution method
Series [24] relates to Escherichia coli. Description: microbe, parasite or virus in culture. The source holds these as a separate data set.
Description: Antimicrobial activity against Escherichia coli expressing beta-lactamase KPC-3 by CLSI broth microdilution method
The subject of series [25] is Escherichia coli. As to the kind of experiment: microbe, parasite or virus in culture. The source holds these as a separate data set.
Description: Antimicrobial activity against Escherichia coli expressing beta-lactamase Oxa-146 by CLSI broth microdilution method
The test system of series [26] is Escherichia coli. As to the kind of experiment: microbe, parasite or virus in culture. This is another data set of the same source.
Description: Antimicrobial activity against Escherichia coli expressing beta-lactamase P99 by CLSI broth microdilution method
The test system of series [27] is Escherichia coli. Description: microbe, parasite or virus in culture. This is another data set of the same source.
Description: Antimicrobial activity against Escherichia coli expressing beta-lactamase GES-1 by CLSI broth microdilution method
In series [28] the test system is Escherichia coli. As to the kind of experiment: microbe, parasite or virus in culture. This is another data set of the same source.
Description: Antimicrobial activity against Escherichia coli expressing beta-lactamase VIM-1 by CLSI broth microdilution method
Series [29] concerns Escherichia coli. As to the kind of experiment: Antimicrobial activity against Escherichia coli expressing beta-lactamase TEM-1 by CLSI broth microdilution method. It is filed as functional.
Series [30] concerns Escherichia coli. Description: microbe, parasite or virus in culture. This is another data set of the same source.
Description: Antimicrobial activity against Escherichia coli expressing beta-lactamase Oxa-51 by CLSI broth microdilution method
The subject of series [31] is Escherichia coli. As to the kind of experiment: microbe, parasite or virus in culture. This is another data set of the same source.
Description: Antimicrobial activity against Escherichia coli expressing beta-lactamase PER-4 by CLSI broth microdilution method
For series [32], the system named is Escherichia coli. Description: microbe, parasite or virus in culture. The source holds these as a separate data set.
Description: Antimicrobial activity against Escherichia coli expressing beta-lactamase VEB-7 by CLSI broth microdilution method
Series [33] has as its system Escherichia coli. As to the kind of experiment: microbe, parasite or virus in culture. This is another data set of the same source.
Description: Antimicrobial activity against Escherichia coli expressing beta-lactamase DHA by CLSI broth microdilution method
Series [34] concerns Escherichia coli. As to the kind of experiment: microbe, parasite or virus in culture. This is another data set of the same source.
Description: Antimicrobial activity against Escherichia coli expressing beta-lactamase Oxa-160 by CLSI broth microdilution method
Series [35] concerns Escherichia coli. As to the kind of experiment: microbe, parasite or virus in culture. This is another data set of the same source.
Description: Antimicrobial activity against Escherichia coli expressing beta-lactamase CTXM-3 by CLSI broth microdilution method
Series [36] relates to Escherichia coli. As to the kind of experiment: microbe, parasite or virus in culture. This is another data set of the same source.
Description: Antimicrobial activity against Escherichia coli expressing beta-lactamase Oxa-23 by CLSI broth microdilution method
Series [37] concerns Escherichia coli. Description: microbe, parasite or virus in culture. The source holds these as a separate data set.
Description: Antimicrobial activity against Escherichia coli expressing beta-lactamase Oxa-40 by CLSI broth microdilution method
The subject of series [38] is Escherichia coli. As to the kind of experiment: microbe, parasite or virus in culture. This is another data set of the same source.
Description: Antimicrobial activity against Escherichia coli expressing beta-lactamase IMP-1 by CLSI broth microdilution method
The test system of series [39] is Escherichia coli. As to the kind of experiment: microbe, parasite or virus in culture. This is another data set of the same source.
Description: Antimicrobial activity against Escherichia coli expressing beta-lactamase TEM-47 by CLSI broth microdilution method
The test system of series [40] is Escherichia coli. As to the kind of experiment: microbe, parasite or virus in culture. This is another data set of the same source.
Description: Antimicrobial activity against Escherichia coli expressing beta-lactamase SPM-1 by CLSI broth microdilution method
Series [41] has as its system Escherichia coli. As to the kind of experiment: microbe, parasite or virus in culture. The source holds these as a separate data set.
Description: Antimicrobial activity against Escherichia coli expressing beta-lactamase TEM-24 by CLSI broth microdilution method
Series [42] concerns Escherichia coli. As to the kind of experiment: microbe, parasite or virus in culture. This is another data set of the same source.
Description: Antimicrobial activity against Escherichia coli expressing beta-lactamase Oxa-48 by CLSI broth microdilution method
Series [43] has as its system Escherichia coli. Description: microbe, parasite or virus in culture. The source holds these as a separate data set.
Description: Antimicrobial activity against Escherichia coli expressing beta-lactamase TEM-16 by CLSI broth microdilution method
Series [44] deals with Escherichia coli. Description: microbe, parasite or virus in culture. The source holds these as a separate data set.
Description: Antimicrobial activity against Escherichia coli expressing beta-lactamase VEB-4 by CLSI broth microdilution method
Series [45] concerns Escherichia coli. Description: microbe, parasite or virus in culture. The source holds these as a separate data set.
Description: Antimicrobial activity against Escherichia coli expressing beta-lactamase SME-1 by CLSI broth microdilution method
For series [46], the system named is Escherichia coli. Description: microbe, parasite or virus in culture. The source holds these as a separate data set.
Description: Antimicrobial activity against Escherichia coli expressing beta-lactamase Oxa-181 by CLSI broth microdilution method
In series [47] the test system is Escherichia coli. As to the kind of experiment: microbe, parasite or virus in culture. This is another data set of the same source.
Description: Antimicrobial activity against Escherichia coli expressing beta-lactamase NMC-A by CLSI broth microdilution method
For series [48], the system named is Escherichia coli. Description: Antimicrobial activity against Escherichia coli expressing beta-lactamase VEB-1 by CLSI broth microdilution method. It is filed as functional.
Series [49] deals with Escherichia coli. As to the kind of experiment: microbe, parasite or virus in culture. The source holds these as a separate data set.
Description: Antimicrobial activity against Escherichia coli expressing beta-lactamase KPC-4 by CLSI broth microdilution method
For series [50], the system named is Escherichia coli. Description: microbe, parasite or virus in culture. The source holds these as a separate data set.
Description: Antimicrobial activity against Escherichia coli expressing beta-lactamase Oxa-10 by CLSI broth microdilution method

The term half-life denotes the time in which the quantity being followed falls by half.

Converted amounts (≈) assume the structure as drawn.

Consider `Nc1nc(/C(=N/OC2(C(=O)O)CC2)C(=O)N[C@@H]2C(=O)N(S(=O)(=O)O)[C@H]2CN2CCOC2=O)cs1` (stereo in doubt), for which the MIC in the series with Pseudomonas aeruginosa [1] was greater than 64 mg/L; against Escherichia coli [2], 32 mg/L (≈ 61.7 µM); with Escherichia coli [4], 0.5 mg/L (≈ 0.964 µM); in the series with Escherichia coli [5] it was 0.5 mg/L (≈ 0.964 µM); against Pseudomonas aeruginosa [6] it was 2 mg/L (≈ 3.86 µM); against Escherichia coli [7] it was 0.5 mg/L (≈ 0.964 µM). Moreover, the MIC was 2 mg/L (≈ 3.86 µM) against Escherichia coli [8]; greater than 64 mg/L with Pseudomonas aeruginosa [9]; 64 mg/L (≈ 123 µM) against Escherichia coli [10]; 0.25 mg/L (≈ 0.482 µM) with Escherichia coli [11]; 0.25 mg/L (≈ 0.482 µM) with Escherichia coli [12]; greater than 64 mg/L against Pseudomonas aeruginosa [13]. The half-life in series [3] is 18.8 days.

Consider `CCN1CCN(C(=O)N[C@@H](C(=O)N[C@@H]2C(=O)N3[C@@H]2SC(C)(C)[C@@H]3C(=O)O)c2ccccc2)C(=O)C1=O` [PIPERACILLIN], for which the MIC is 32 mg/L (≈ 61.8 µM) against Escherichia coli [14]; greater than 64 mg/L in the series on Escherichia coli [15]; greater than 64 mg/L in the series on Escherichia coli [16]; greater than 64 mg/L against Escherichia coli [17]; greater than 64 mg/L in the series on Escherichia coli [2]; 64 mg/L (≈ 124 µM) in the series on Escherichia coli [18]. For the same compound, the MIC with Escherichia coli [19] was greater than 64 mg/L; against Escherichia coli [20] it was greater than 64 mg/L; in the series on Escherichia coli [21], greater than 64 mg/L; against Escherichia coli [4], greater than 64 mg/L; against Escherichia coli [5], greater than 64 mg/L; with Escherichia coli [22] it was 64 mg/L (≈ 124 µM). Also, the MIC with Escherichia coli [23] was 8 mg/L (≈ 15.5 µM); in the series on Escherichia coli [24] it was greater than 64 mg/L; in the series on Escherichia coli [25], greater than 64 mg/L; in the series on Escherichia coli [26], 32 mg/L (≈ 61.8 µM); against Escherichia coli [27], greater than 64 mg/L; against Escherichia coli [28] it was greater than 64 mg/L. Besides, the MIC against Escherichia coli [29] was greater than 64 mg/L; with Escherichia coli [30] it was 8 mg/L (≈ 15.5 µM); against Escherichia coli [31] it was 8 mg/L (≈ 15.5 µM); against Escherichia coli [32] it was 32 mg/L (≈ 61.8 µM); with Escherichia coli [33] it was 64 mg/L (≈ 124 µM); against Escherichia coli [7] it was greater than 64 mg/L. The MIC against Escherichia coli [34] was 64 mg/L (≈ 124 µM); in the series with Escherichia coli [35], greater than 64 mg/L; with Escherichia coli [36], greater than 64 mg/L; in the series on Escherichia coli [37] it was greater than 64 mg/L; against Escherichia coli [38], 16 mg/L (≈ 30.9 µM); with Escherichia coli [39], 64 mg/L (≈ 124 µM). Moreover, the MIC in the series on Escherichia coli [40] was 64 mg/L (≈ 124 µM); in the series on Escherichia coli [8], 32 mg/L (≈ 61.8 µM); against Escherichia coli [10], greater than 64 mg/L; in the series with Escherichia coli [41], 16 mg/L (≈ 30.9 µM); against Escherichia coli [11] it was greater than 64 mg/L; against Escherichia coli [42] it was greater than 64 mg/L. The MIC against Escherichia coli [12] was 4 mg/L (≈ 7.73 µM); in the series on Escherichia coli [43], 64 mg/L (≈ 124 µM); with Escherichia coli [44] it was 8 mg/L (≈ 15.5 µM); against Escherichia coli [45], greater than 64 mg/L; in the series on Escherichia coli [46], greater than 64 mg/L; in the series with Escherichia coli [47], 64 mg/L (≈ 124 µM). In addition, the MIC against Escherichia coli [48] is 32 mg/L (≈ 61.8 µM); in the series on Escherichia coli [49], greater than 64 mg/L; with Escherichia coli [50], greater than 64 mg/L.

`CC(C)(O/N=C(\C(=O)N[C@@H]1C(=O)N(S(=O)(=O)O)[C@@H]1Cn1cncn1)c1csc(N)n1)C(=O)O` (stereo in doubt): the MIC was greater than 64 mg/L in the series on Pseudomonas aeruginosa [1]; 1 mg/L (≈ 1.99 µM) against Escherichia coli [2]; 1 mg/L (≈ 1.99 µM) in the series with Escherichia coli [4]; 0.5 mg/L (≈ 0.995 µM) against Escherichia coli [5]; 1 mg/L (≈ 1.99 µM) in the series with Pseudomonas aeruginosa [6]; 16 mg/L (≈ 31.8 µM) against Escherichia coli [7]. In addition, the MIC against Escherichia coli [8] was 8 mg/L (≈ 15.9 µM); in the series on Pseudomonas aeruginosa [9] it was 32 mg/L (≈ 63.7 µM); against Escherichia coli [10], 1 mg/L (≈ 1.99 µM); against Escherichia coli [11], 0.5 mg/L (≈ 0.995 µM); against Escherichia coli [12] it was 0.5 mg/L (≈ 0.995 µM); with Pseudomonas aeruginosa [13], greater than 64 mg/L. The half-life in [3] is 9.71 days.
